According to patent publication US20160158280A1, “A METHOD FOR ORGAN ARREST, PROTECTION AND PRESERVATION AND REDUCING TISSUE INJURY” (priority 2013, published 2016):
pKi: −log10 of the molar value. “And” between values parts separate entries of the source, which are not always exact repeats. Equal values may be shown once.

Key:
human NK(1) receptor = human NK(1) receptor (Homo sapiens, UniProt P25103); details: cited from earlier work
humans = details: oral and/or intravenous 10, 25, 50, and 100 mg/kg body weight; cited from earlier work
[1] = 400 mg daily tablets; cited from earlier work
[2] = cited from earlier work
[3] = tested on: isolated guinea-pig mesenteric artery; test: Isolated guinea-pig mesenteric artery relaxation (pressure myograph, videomicroscopy); details: for relaxation of isolated intact mesenteric artery: AVP-constricted, 0.001 to 1 mM luminal or abluminal; for abluminal versus luminal relaxation: intact artery, adenosine: at 10 μM and 100 μM
Description: Male guinea pigs (250-300 g) were anesthetised and placed in a cradle and the abdomen opened. Second order mesenteric artery branches were isolated and mounted in a pressure myograph (see FIG. 4) under constant pressure of 60 mmHg and perfusion (luminal flow) of 100 uL/min with Krebs-Henseleit buffer (37° C.). Artery diameter was continuously measured using videomicroscopy (see FIG. 4). For the relaxation/vasodilation experiments arteries were equilibrated and then constricted with 10^−8 M arginine vasopressin (AVP). Adenosine, lidocaine or adenosine-lidocaine together were administered 2) luminally and 2) abluminally and concentration curves were obtained. Stock solutions of adenosine and lidocaine alone or adenosine-lidocaine combined were made in deionized water to 20 mM. A range of volumes were pipetted to provide contact concentrations with the vessel lumen or outer wall that ranged from 0.001 to 1 mM. At the end of experiments, arteries were dilated using calcium-free solution to obtain 100% relaxation. A number of arteries were denuded by introducing 5 ml air into the lumen with flow rate 1000 μl/min. The air outflow was then clamped until the intraluminal pressure reached 70 mmHg, flow rate was reduced to 2 μl/min and the vessel remained pressurized for 10 minutes

human NK(1) receptor, sequence (P25103 whole entry): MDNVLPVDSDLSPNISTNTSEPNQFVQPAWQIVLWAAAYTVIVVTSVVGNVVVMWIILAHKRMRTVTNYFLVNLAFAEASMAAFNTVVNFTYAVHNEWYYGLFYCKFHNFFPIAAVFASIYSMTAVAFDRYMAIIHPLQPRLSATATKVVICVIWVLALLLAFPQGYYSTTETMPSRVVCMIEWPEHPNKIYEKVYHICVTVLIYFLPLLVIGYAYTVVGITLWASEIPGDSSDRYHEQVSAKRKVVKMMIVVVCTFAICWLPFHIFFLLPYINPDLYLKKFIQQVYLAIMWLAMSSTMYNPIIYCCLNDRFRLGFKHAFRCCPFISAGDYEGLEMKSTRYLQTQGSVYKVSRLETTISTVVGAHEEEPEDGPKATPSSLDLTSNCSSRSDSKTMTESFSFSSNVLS

SMILES	relaxation of isolated intact mesenteric artery [3]	relaxation of mesenteric artery ([3]; endothelium absent (denuded))	relaxation of mesenteric artery ([3]; endothelium present)	abluminal versus luminal relaxation [3]	further results
Cc1cccc(C)c1NC(=O)C[C@H]1CCN(C(=O)c2cc(C(F)(F)F)cc(C(F)(F)F)c2)[C@@H](Cc2ccccc2)C1.O=C(O)C[C@H](O)C(=O)O (relative stereo) [R116301, (2R-trans)-4-[1-[3,5-bis(trifluoromethyi)benzoyl]-2-(phenylmethyl)-4-piperidinyl]-N-(2,6-dimethylphenyl)-1-acetamide (S)-Hydroxybutanedioate]					selectivity toward NK(2) and NK(3) receptors (human NK(1) receptor): over 200 fold; pKi (human NK(1) receptor; human NK(1) receptor): 9.35
NC(=O)c1ncn([C@@H]2O[C@H](CO)[C@@H](O)[C@H]2O)c1N [Acadesine, 5-amino-4-imidazole carboxamide ribonucleoside]					safety in humans (humans): safe in humans
OCCN(CCO)c1nc(N2CCCCC2)c2nc(N(CCO)CCO)nc(N3CCCCC3)c2n1 [Dipyridamole]					plasma level [1]: about 0.4 μg/ml and 0.8 μM
Nc1ncnc2c1ncn2[C@@H]1O[C@H](CO)[C@@H](O)[C@H]1O [adenosine]	increased relaxation	relaxed the mesenteric artery in a dose dependent manner	relaxed the mesenteric artery in a dose dependent manner	significantly more relaxation	half life in the blood [2]: about 10 seconds
CCN(CC)CC(=O)Nc1c(C)cccc1C [lidocaine]	failed to produce relaxation	relaxed the artery	did not significantly change mesenteric artery diameter	no significant difference	
